# In US11795177B2, “Substituted quinoline analogs as aldehyde dehydrogenase 1A1 (ALDH1A1) inhibitors” (THE UNITED STATES OF AMERICA, AS REPRESENTED BY THE …, priority 2017, dated 2023):
# pIC50: −log10 of the molar value. Where a name gives a salt, the structure may show the parent alone.
# Experiments:
# ALDH1A1 enzyme = molecular target: T1, ALDH1A1 enzyme (Homo sapiens, UniProt P00352); experiment: ALDH1A1 enzymatic assay (in vitro); format: biochemical; conditions: ALDH1A1 enzyme 20 nM, NAD+ 1 mM, propionaldehyde 80 μM; read-out: ALDH1A1 IC50
# T1 sequence (P00352 1-501): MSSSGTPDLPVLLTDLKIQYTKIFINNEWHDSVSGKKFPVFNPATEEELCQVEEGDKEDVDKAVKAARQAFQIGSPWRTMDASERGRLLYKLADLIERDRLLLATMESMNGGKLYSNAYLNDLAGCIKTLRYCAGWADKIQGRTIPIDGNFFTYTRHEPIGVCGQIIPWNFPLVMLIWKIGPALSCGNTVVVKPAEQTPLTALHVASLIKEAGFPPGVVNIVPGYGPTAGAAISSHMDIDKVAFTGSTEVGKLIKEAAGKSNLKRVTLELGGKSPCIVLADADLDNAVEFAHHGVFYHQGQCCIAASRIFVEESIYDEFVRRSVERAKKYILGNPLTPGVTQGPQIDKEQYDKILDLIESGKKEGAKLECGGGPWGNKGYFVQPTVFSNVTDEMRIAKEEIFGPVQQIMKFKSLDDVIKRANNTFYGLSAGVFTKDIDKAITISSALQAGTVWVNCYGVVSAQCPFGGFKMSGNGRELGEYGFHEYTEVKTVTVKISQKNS
# In short: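 ALDH1A1 (20 nM final) in 100 mM HEPES pH 7.5, 0.01% Tween 20 was preincubated 15 min at RT with compound (968 pM–57.2 μM final), then started with 1 mM NAD+ and 80 μM propionaldehyde. NADH fluorescence (ex 340/em 450 nm) followed kinetically for 10 min; change normalized to no-inhibitor and no-enzyme controls for percent inhibition and curve fitting.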
# MIA PaCa-2 cells = experiment: MIA PaCa2 cell-based assay (1,536-well high-content imaging ALDEFLUOR assay); set-up: species or system human; conditions: ALDEFLUOR BAAA substrate 500 nM, 30 minutes
# In short: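 High-content ALDEFLUOR imaging readout: BAA-retaining cells in FITC channel scored against Hoechst-counted nuclei. Before imaging, MIA PaCa-2 cells seeded at 1,000 per well received final 500 nM BAAA and 0.5 nM Hoechst with compounds in 16-point series (1.4 nM to 47.8 μM), 30 min, 37° C.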
Compound,pIC50 (ALDH1A1 enzyme),"pIC50 (MIA PaCa-2 cells; Homo sapiens, 0.5 h)",pIC50 (MIA PaCa-2 cells)
"COc1ccc2ncc(C(=O)N3CCN(C(=O)C4CC4)CC3)c(N3CCS(=O)(=O)CC3)c2c1 [Example 29, (4-(cyclopropanecarbonyl)piperazin-1-yl)(4-(1,1-dioxidothiomorpholino)-6-methoxyquinolin-3-yl)methanone]",< 5.00,< 5.00,–
"CN(C)S(=O)(=O)N1CCN(C(=O)c2cnc3cc(F)c(F)cc3c2N2CCC(C)(C#N)CC2)CC1 [Example 177, 4-(4-(4-cyano-4-methylpiperidin-1-yl)-6,7-difluoroquinoline-3-carbonyl)-N,N-dimethylpiperazine-1-sulfonamide]",> 6.30,> 6.30,–
"CS(=O)(=O)N1CCN(C(=O)c2cnc3ccc(F)cc3c2-c2ccc(CC#N)cc2)CC1 [Example 212, 2-(4-(6-fluoro-3-(4-(methylsulfonyl)piperazine-1-carbonyl)quinolin-4-yl)phenyl)acetonitrile]",> 6.30,5.00 to 6.00,–
"4-(4-cyano-4-phenylpiperidin-1-yl)-6-fluoro-N-((1R,3R)-3-hydroxycyclobutyl)quinoline-3-carboxamide [Cpd. 330]",> 6.30,–,> 6.30
"COC1(C)CCN(c2c(C(=O)N3CCN(C(=O)C4CC4)CC3)cnc3ccc(F)cc23)CC1 [Example 61, (4-(cyclopropanecarbonyl)piperazin-1-yl)(6-fluoro-4-(4-methoxy-4-methylpiperidin-1-yl)quinolin-3-yl)methanone]",> 6.30,< 5.00,–
"C[C@@H]1CN(S(C)(=O)=O)CCN1C(=O)c1cnc2ccc(F)cc2c1N1CCC(C)(C#N)CC1 [Example 241, (R)-1-(6-fluoro-3-(2-methyl-4-(methylsulfonyl)piperazine-1-carbonyl)quinolin-4-yl)-4-methylpiperidine-4-carbonitrile]",5.00 to 6.00,< 5.00,–
"CCNC(=O)N1CCN(C(=O)c2cnc3cc(OC)c(OC)cc3c2N2CCC(C)(C#N)CC2)CC1 [Example 115, 4-(4-(4-cyano-4-methylpiperidin-1-yl)-6,7-dimethoxyquinoline-3-carbonyl)-N-ethylpiperazine-1-carboxamide]",> 6.30,< 5.00,–
"CN(C)C(=O)N1CCN(C(=O)c2cnc3ccsc3c2-c2ccc(C3(C#N)CC3)cc2)CC1 [Example 281, 4-(7-(4-(1-cyanocyclopropyl)phenyl)thieno[3,2-b]pyridine-6-carbonyl)-N,N-dimethylpiperazine-1-carboxamide]",> 6.30,> 6.30,–
"COc1cc2ncc(C(=O)N3CCN(C(=O)C(C)C)CC3)c(N3CCC(C)(C#N)CC3)c2cc1OC [Example 111, 1-(3-(4-isobutyrylpiperazine-1-carbonyl)-6,7-dimethoxyquinolin-4-yl)-4-methylpiperidine-4-carbonitrile]",> 6.30,5.00 to 6.00,–
"CC1(C#N)CCN(c2c(C(=O)N3CCN(S(=O)(=O)C4CC4)CC3)cnc3ccccc23)CC1 [Example 98, 1-(3-(4-(cyclopropylsulfonyl)piperazine-1-carbonyl)quinolin-4-yl)-4-methylpiperidine-4-carbonitrile]",5.00 to 6.00,< 5.00,–
"CCS(=O)(=O)N1CCN(C(=O)c2cnc3c(F)cc(F)cc3c2N2CCC3(CC2)OCCO3)CC1 [Example 161, (6,8-difluoro-4-(1,4-dioxa-8-azaspiro[4.5]decan-8-yl)quinolin-3-yl)(4-(ethylsulfonyl)piperazin-1-yl)methanone]",> 6.30,5.00 to 6.00,–
"CC1(C#N)CCN(c2c(C(=O)N3CCC(C(=O)C4CC4)CC3)cnc3cc(F)c(F)cc23)CC1 [Example 196, 1-(3-(4-(cyclopropanecareonyl)piperidine-1-carbonyl)-6,7-difluoroquinolin-4-yl)-4-methylpiperidine-4-carbonitrile]",> 6.30,5.00 to 6.00,–
"N#CC1(c2ccc(F)cc2)CCN(c2c(C(=O)N3CCN(C(=O)C4CC4)CC3)cnc3ccc(F)cc23)CC1 [Example 278, 1-(3-(4-(cyclopropanecarbonyl)piperazine-1-carbonyl)-6-fluoroquinolin-4-yl)-4-(4-fluorophenyl)piperidine-4-carbonitrile]",> 6.30,> 6.30,–
"O=C(c1cnc2cc(F)c(F)cc2c1N1CCC2(CC1)OCCO2)N1CCN(S(=O)(=O)N2CCCC2)CC1 [Example 173, (6,7-difluoro-4-(1,4-dioxa-8-azaspiro[4.5]decan-8-yl)quinolin-3-yl)(4-(pyrrolidin-1-ylsulfonyl)piperazin-1-yl)methanone]",> 6.30,< 5.00,–
"CS(=O)(=O)N1CCN(C(=O)c2cnc3ccc(F)cc3c2N2CCC(Cc3ccccc3)CC2)CC1 [Example 198, (4-(4-benzylpiperidin-1-yl)-6-fluoroquinolin-3-yl)(4-(methylsulfonyl)piperazin-1-yl)methanone]",> 6.30,< 5.00,–
"C[C@@H]1CN(C(=O)c2cnc3ccc(F)cc3c2N2CCC(C)(C#N)CC2)C[C@H](C)N1S(C)(=O)=O [Example 225, 1-(3-((3R*,5S*)-3,5-dimethyl-4-(methylsulfonyl)piperazine-1-carbonyl)-6-fluoroquinolin-4-yl)-4-methylpiperidine-4-carbonitrile]",5.00 to 6.00,< 5.00,–
"CCNC(=O)N1CCN(C(=O)c2cnc3c(F)c(OC)c(F)cc3c2N2CCC3(CC2)OCCO3)CC1 [Example 143, 4-(6,8-difluoro-7-methoxy-4-(1,4-dioxa-8-azaspiro[4.5]decan-8-yl)quinoline-3-carbonyl)-N-ethylpiperazine-1-carboxamide]",> 6.30,5.00 to 6.00,–
"CS(=O)(=O)N1CCN(C(=O)c2cnc3ccc(F)cc3c2-c2ccc(C3(CO)CC3)cc2)CC1 [Example 280, (6-fluoro-4-(4-(1-(hydroxymethyl)cyclopropyl)phenyl)quinolin-3-yl)(4-(methylsulfonyl)piperazin-1-yl)methanone]",> 6.30,> 6.30,–
"CCOC(=O)N1CCN(C(=O)c2cnc3ccc(OC)cc3c2N2CCC3(CC2)OCCO3)CC1 [Example 40, Ethyl 4-(6-methoxy-4-(1,4-dioxa-8-azaspiro[4.5]decan-8-yl)quinoline-3-carbonyl)piperazine-1-carboxylate]",> 6.30,< 5.00,–
"C[C@H]1CN(C(=O)c2cnc3ccc(F)cc3c2N2CCC(C)(C#N)CC2)CCN1C(=O)C1CC1 [Example 227, (S)-1-(3-(4-(cyclopropanecarbonyl)-3-methylpiperazine-1-carbonyl)-6-fluoroquinolin-4-yl)-4-methylpiperidine-4-carbonitrile]",> 6.30,5.00 to 6.00,–
"O=C1CC2(CCN(c3c(C(=O)N4CCN(C(=O)C5CC5)CC4)cnc4ccc(F)cc34)CC2)c2ccccc21 [Example 203, 1′-(3-(4-(cyclopropanecarbonyl)piperazine-1-carbonyl)-6-fluoroquinolin-4-yl)spiro[indene-1,4′-piperidin]-3(2H)-one]",5.00 to 6.00,5.00 to 6.00,–
"N#CC1(c2ccc(-c3c(C(=O)Nc4cnn(CC(=O)NC5CC5)c4)cnc4ccc(F)cc34)cc2)CC1 [Cpd. 344, 4-(4-(1-cyanocyclopropyl)phenyl)-N-(1-(2-(cyclopropylamino)-2-oxoethyl)-1H-pyrazol-4-yl)-6-fluoroquinoline-3-carboxamide]",> 6.30,5.00 to 6.00,–
"CCNC(=O)N1CCN(C(=O)c2cnc3c(F)c(OC)c(F)cc3c2N2CCC(C)(C#N)CC2)CC1 [Example 147, 4-(4-(4-cyano-4-methylpiperidin-1-yl)-6,8-difluoro-7-methoxyquinoline-3-carbonyl)-N-ethylpiperazine-1-carboxamide]",> 6.30,5.00 to 6.00,–
"COc1ccc2ncc(C(=O)N3CCN(C(=O)C4CC4)CC3)c(N3CCN(S(C)(=O)=O)CC3)c2c1 [Example 19, (4-(cyclopropanecarbonyl)piperazin-1-yl)(6-methoxy-4-(4-(methylsulfonyl)piperazin-1-yl)quinolin-3-yl)methanone, TFA]",5.00 to 6.00,5.00 to 6.00,–
"N#CC1(c2ccccc2)CCN(c2c(C(=O)Nc3cnn(CCO)c3)cnc3ccc(F)cc23)CC1 [Cpd. 345, 4-(4-cyano-4-phenylpiperidin-1-yl)-6-fluoro-N-(1-(2-hydroxyethyl)-1H-pyrazol-4-yl)quinoline-3-carboxamide]",> 6.30,> 6.30,–
"CCNC(=O)N1CCN(C(=O)c2cnc3cc(OC)ccc3c2N2CCC(C)(C#N)CC2)CC1 [Example 107, 4-(4-(4-cyano-4-methylpiperidin-1-yl)-7-methoxyquinoline-3-carbonyl)-N-ethylpiperazine-1-carboxamide]",> 6.30,5.00 to 6.00,–
